Assay results published in publication PMC7004140, “In vitro hepatotoxicity of Petasites hybridus extract (Ze 339) depends on the concentration, the cytochrome activity of the cell system, and the species used” (Phytotherapy Research, 2019).

How the values were obtained:
CYP2C6 (rat) = target: T1, CYP2C6 (rat) (Rattus norvegicus, UniProt P05178); experiment: Metabolism by isolated rat CYP2C6; assay type: in vitro ADME; settings: petasins 20 μM, 60 min
T1 construct: purchased BD Gentest (Switzerland); host or cells: baculovirus expression system
T1 sequence (P05178 1-490): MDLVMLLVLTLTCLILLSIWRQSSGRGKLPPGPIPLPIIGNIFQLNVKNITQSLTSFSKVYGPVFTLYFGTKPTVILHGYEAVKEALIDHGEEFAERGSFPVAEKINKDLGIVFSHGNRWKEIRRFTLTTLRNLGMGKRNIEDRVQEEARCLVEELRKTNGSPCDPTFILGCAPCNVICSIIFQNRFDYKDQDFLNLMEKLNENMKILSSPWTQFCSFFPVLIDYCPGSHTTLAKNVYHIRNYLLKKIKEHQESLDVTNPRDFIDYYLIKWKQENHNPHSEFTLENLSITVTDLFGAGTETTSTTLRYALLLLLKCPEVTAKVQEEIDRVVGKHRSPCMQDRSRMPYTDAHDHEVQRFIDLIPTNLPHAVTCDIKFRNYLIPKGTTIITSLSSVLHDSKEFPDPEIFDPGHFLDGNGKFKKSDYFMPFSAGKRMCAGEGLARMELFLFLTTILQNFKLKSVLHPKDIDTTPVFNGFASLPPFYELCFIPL
Source text: (§1) The metabolism of petasin, isopetasin, and neopetasin was investigated using three different S9 fractions originating from three different species (isolated from rat, dog, and human liver homogenates containing cytochrome P450 isoforms) and isolated cytochromes of two different species (human and rat; rat analogues of the respective human cytochromes were used). For the expression of the different cytochromes, a baculovirus expression system was used according to supplier's manual. The S9 fractions or respectively single P450 cytochromes were used to mimic the liver metabolism by in vitro incubation.
(§2) The assay was carried out in triplicate in 1.5 ml glass vials with a final concentration of 20 μM of petasin, isopetasin, and neopetasin. The incubation was performed in a 37°C warm water bath. S9 fractions were thawed slowly on ice. Four different approaches were pursued by testing: (a) petasin, neopetasin, and isopetasin before (0 min) and after 60 min incubations with S9 fraction; (b) petasin, neopetasin, and isopetasin without S9 fraction after 60 min incubation; (c) vehicle as negative controls; and (d) cofactors of S9 fraction after 60‐min incubation.
(§3) A mixture of NADPH regeneration systems A (20‐fold) and B (100‐fold), phosphate buffer, and H2O was added, preincubated at 37°C, and shaken gently for 5 min. Afterwards, the recommended amount between 10 and 40 pmol/ml of enzyme or enzyme mixture was added according to manufacturer's instruction and incubated for further 60 min at 37°C and gently shaken. Afterwards, the reactions were stopped by addition of acetonitrile (400 μl). For the control sample, acetonitrile was added at 0 min incubation. The samples were centrifuged for 3 min at 10,000 × g. The supernatant was transferred to high‐performance liquid chromatography vials and analyzed by ultra‐performance liquid chromatography mass spectrometry (UPLC/MS). The UPLC analysis was performed with an UPLC Acquity H Class from Waters (Waters Corporation, Switzerland) including a quaternary high‐pressure gradient pump, an automatic sample injector, and a column thermostat. […]

CYP2C11 (rat) = target: T2, CYP2C11 (rat) (Rattus norvegicus, UniProt P08683); experiment: Metabolism by isolated rat CYP2C11; assay type: in vitro ADME; settings: petasins 20 μM, 60 min
T2 construct: purchased BD Gentest (Switzerland); host or cells: baculovirus expression system
T2 sequence (P08683 1-500): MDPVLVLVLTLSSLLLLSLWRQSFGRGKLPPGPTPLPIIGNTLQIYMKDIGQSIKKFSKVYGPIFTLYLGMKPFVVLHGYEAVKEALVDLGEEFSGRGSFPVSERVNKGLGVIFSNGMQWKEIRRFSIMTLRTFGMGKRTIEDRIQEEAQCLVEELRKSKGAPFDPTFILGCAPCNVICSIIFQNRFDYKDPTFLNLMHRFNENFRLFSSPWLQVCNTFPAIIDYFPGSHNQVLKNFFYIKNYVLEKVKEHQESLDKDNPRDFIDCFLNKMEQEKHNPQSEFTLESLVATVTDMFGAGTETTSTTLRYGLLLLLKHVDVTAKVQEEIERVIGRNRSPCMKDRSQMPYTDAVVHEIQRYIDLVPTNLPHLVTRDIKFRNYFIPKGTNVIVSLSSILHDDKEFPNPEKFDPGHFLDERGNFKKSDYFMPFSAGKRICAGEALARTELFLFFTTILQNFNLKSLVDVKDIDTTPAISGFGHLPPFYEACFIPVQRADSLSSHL
Source text: as §1, §2, §3

[1] = test system: S9 fractions from rat, dog and human; experiment: Metabolism by liver S9 fractions from different species; assay type: in vitro ADME, rat (Sprague Dawley), dog (beagle); settings: 20 μM, 60 min incubation
Source text: as §1, §2, §3

H-4-II-E cells = experiment: WST-1 metabolic activity (cytotoxicity) in H-4-II-E cells; assay type: cell-based, rat (Rattus norvegicus); settings: Rattus norvegicus, H4IIE, single constituents, 4 hr
Description: HepG2 and H‐4‐II‐E cells were differentiated for 24 hr. HepaRG cells were directly seeded in precoated 96‐well microtiter plates and were incubated in William's medium with general purpose supplements according to manufacturer's manual until adherence. All cells were treated with Ze 339 (up to 100 μg/ml) or petasin, isopetasin, neopetasin, petasol, isopetasol, petasin mixture, fatty acid mixture, and reconstituted extracts (up to 250 μM) for 4 hr.
In the three cell lines, cytotoxicity was defined as a decrease in metabolic activity of ≥20% in the WST‐1 assay. At the end of the experiment, 10 μl WST‐1 reagent was added to each well. Plates were then incubated for 2 hr to allow for the reduction of WST‐1 reagent. Absorbance was measured using a microplate absorbance reader (Infinite M 200, Tecan Trading Ltd., Switzerland) at 450 nm, reference wavelength of 620 nm. Due to some matrix effect, the lowest concentration (0.02 μg/ml for Ze 339 and 3.9 μM for single constituents and mixtures) of each substance tested was defined as 100% metabolic activity. Results were expressed as percentage of the control metabolic activity, and data were presented as mean values ± SEM (n = 3–6).
Concentration‐response analysis was done using the sigmoidal Hill equation: E(t) = E0 − Emax × C(t)^N/(IC50 ^N + C(t)^N), where E is the effect at time t, E0 the effect at baseline (time = 0), IC50 the concentration yielding 50% of the maximal effect (Emax), and N denotes the sigmoidicity coefficient (Origin 2017 Software). For statistical analysis, analysis of variance with Dunnett's multicomparison test was used to correct for multiplicity of testing (IBM SPSS Statistics software, version 25, IBM Corp., USA). The level of significance was ^* p < .05, ^** p < .01 and ^*** p < .001; NS = no significance.

SMILES | extent of metabolism by CYP2C6 (rat) (CYP2C6 (rat)) [%] | extent of metabolism by CYP2C11 (rat) (CYP2C11 (rat)) [%] | rank order of extent of metabolism by S9 fractions of different species [1] | EC50 (H-4-II-E cells) [µM]
C/C=C(/C)C(=O)O[C@@H]1CCC2=CC(=O)C(=C(C)C)C[C@]2(C)[C@H]1C [isopetasin] | 75 | 84 | rat>dog>human | 110
C=C(C)[C@H]1C[C@@]2(C)C(=CC1=O)CC[C@@H](OC(=O)/C(C)=C\C)[C@@H]2C [neopetasin] | 72 | 74 | rat>dog>human | 15.8
C=C(C)[C@@H]1C[C@@]2(C)C(=CC1=O)CC[C@@H](OC(=O)/C(C)=C\C)[C@@H]2C [petasin] | 94 | 55 | rat>dog>human | 132
